Measured values from ChEMBL document CHEMBL4480401, “Determination of Ligand Binding Epitope Structures Using Polarization Transfer from Hyperpolarized Ligands” (J Med Chem, 2019).
Active and inactive are the calls of the source. No cut-off for these calls is given here.

Molecular target: T1, Dihydrofolate reductase (Homo sapiens) (UniProt P00374)
T1 sequence (whole entry): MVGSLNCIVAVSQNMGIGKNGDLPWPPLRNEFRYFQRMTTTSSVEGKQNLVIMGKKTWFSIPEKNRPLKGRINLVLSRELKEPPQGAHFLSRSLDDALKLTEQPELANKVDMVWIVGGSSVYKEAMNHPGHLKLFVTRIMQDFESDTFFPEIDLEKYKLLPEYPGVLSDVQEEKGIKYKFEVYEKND
Assay: Binding affinity to [13C]-labeled DHFR DHFR (unknown origin) expressed in Escherichia coli BL21(DE3) using hyperpolarized compound sample at 1.6 mM by dissolution dynamic nuclear polarization and NMR spectroscopy

Activity: Active
SMILES: Nc1nc(=O)c2nc(CNc3ccc(C(=O)N[C@@H](CCC(=O)O)C(=O)O)cc3)cnc2[nH]1
